The text below walks through data of patent US20260256920A1, “SELECTIVE HISTONE DEACETYLASE 3 (HDAC3) DERADERS AND METHODS OF USE THEREOF” (Dana-Farber Cancer Institute, Inc., priority 2022, published 2026).

For one assay, the target named is T1, HDAC3 (Homo sapiens, UniProt O15379).
T1 construct: endogenous in cells; host or cells: Kelly cells
Briefly: Quantitative LC-MS proteomics of relative protein abundance in treated Kelly cells. Format: cell-based. Conditions: 1 μM compound, 5 hr, compared to DMSO control. The protocol: Kelly cells were treated with DMSO or 1 μM of compound 2 or 3 for 5 hr and cells were harvested by centrifugation at 4° C. before snap freezing in liquid nitrogen. Cell lysis was performed by the addition of Urea buffer (8 M Urea, 50 mM NaCl, 50 mM 4-(2-hydroxyethyl)-1-piperazineethanesulfonic acid (EPPS) pH 8.5, Protease and Phosphatase inhibitors) followed by manual homogenization by 20 passes through a 21-gauge (1.25 in. long) needle. Lysate was clarified by centrifugation and protein quantified using bradford (Bio-Rad) assay. 50 μg of protein for each sample was reduced, alkylated and precipitated using methanol/chloroform as described in Donovan et al., eLife 7: e38430 (2018). The resulting precipitated protein was resuspended in 4 M Urea, 50 mM HEPES pH 7.4, buffer for solubilization, followed by dilution to 1 M urea with the addition of 200 mM EPPS, pH 8. Proteins were digested for 12 hours at room temperature with LysC (1:50 ratio), followed by dilution to 0.5 M urea and a second digestion step was performed by addition of trypsin (1:50 ratio) for 6 hours at 37° C. […]
The diaPASEF raw file processing and controlling peptide and protein level false discovery rates, assembling proteins from peptides, and protein quantification from peptides was performed using library free analysis in DIA-NN 1.8 (Demichev et al., Nature Methods 17:41-44 (2020)). […]

The target of another assay is T2, VHL (Homo sapiens, UniProt P40337).
T2 construct: Cells stably expressing the BRD4BD2-GFP with mCherry reporter were seeded; endogenous in cells; host or cells: unnamed cells stably expressing the BRD4BD2-GFP with mCherry reporter
T2 sequence (P40337 whole entry, species assumed): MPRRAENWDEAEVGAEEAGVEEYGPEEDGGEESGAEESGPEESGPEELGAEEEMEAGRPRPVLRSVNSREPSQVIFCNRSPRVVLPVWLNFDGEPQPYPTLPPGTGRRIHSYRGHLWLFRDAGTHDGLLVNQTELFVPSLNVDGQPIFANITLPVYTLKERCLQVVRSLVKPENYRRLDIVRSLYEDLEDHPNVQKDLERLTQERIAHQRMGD
Briefly: Cellular VHL engagement assay (BRD4BD2-GFP with mCherry reporter cells). The class given is cell-based. The note with it: cells stably expressing BRD4BD2-GFP with mCherry reporter, co-treated with 250 nM BRD4 degrader, 5 h. The procedure:
Cells stably expressing the BRD4BD2-GFP with mCherry reporter were seeded at a density of 1000-4000 cells/well in 384-well plates with 50 μL per well of FluoroBrite™ DMEM media (Thermo Fisher Scientific™, A18967) supplemented with 2% FBS a day before compound treatment. Compounds 1 and 2, and 250 nM 1 ((2S,4R)-1-(2R)-2-acetamido-3-[[6-[2-[(6S)-4-(4-chlorophenyl)-2,3,9-trimethyl-6H-thieno[3,2-f][1,2,4]triazolo[4,3-a][1,4]diazepin-6-yl]acetamido]hexyl]thio]-3-methylbutanoyl]-4-hydroxy-N-[4-(4-methylthiazol-5-yl)benzyl) pyrrolidinine-2-carboxamide) were dispensed using a D300e Digital Dispenser (HP), normalized to 0.5% DMSO, and incubated with the cells for 5 h. The assay plate was imaged immediately using an Acumen® High Content Imager (TTP Labtech) with 488 nm and 561 nm lasers in a 2 μm×1 μm grid per well format. The resulting images were analyzed using CellProfiler™.
A series of image analysis steps (an ‘image analysis pipeline’) was constructed. […] A background illumination function was calculated for both red and green channels of each well individually and subtracted to correct for illumination variations across the 384-well plate from various sources of error. […] The fraction of GFP-positive cells/mCherry-positive cells in each well was then calculated, and the green and red images were rescaled for visualization. […]

Structures are written as SMILES.

T1 sequence (O15379 whole entry): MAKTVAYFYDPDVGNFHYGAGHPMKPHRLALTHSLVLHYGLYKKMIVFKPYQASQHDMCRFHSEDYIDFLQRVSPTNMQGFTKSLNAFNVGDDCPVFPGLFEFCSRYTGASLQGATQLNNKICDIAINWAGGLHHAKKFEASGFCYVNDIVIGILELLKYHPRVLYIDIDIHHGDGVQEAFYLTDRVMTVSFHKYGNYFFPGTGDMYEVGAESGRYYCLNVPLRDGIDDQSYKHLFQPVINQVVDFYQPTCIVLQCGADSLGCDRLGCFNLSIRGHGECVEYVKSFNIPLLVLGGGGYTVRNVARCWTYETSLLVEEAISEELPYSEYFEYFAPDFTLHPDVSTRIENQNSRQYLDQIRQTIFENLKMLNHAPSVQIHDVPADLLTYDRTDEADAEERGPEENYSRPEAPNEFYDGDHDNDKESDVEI
T1 sequence (Q9Y618 389-480 partner limits assumed): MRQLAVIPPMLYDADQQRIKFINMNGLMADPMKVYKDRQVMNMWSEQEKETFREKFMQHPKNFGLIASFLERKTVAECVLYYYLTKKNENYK

For the compound `CCCNNC(=O)/C=C/c1ccc(CN(CCCCCOc2cc(-c3scnc3C)ccc2CNC(=O)[C@@H]2C[C@@H](O)CN2C(=O)[C@@H](NC(=O)C2(F)CC2)C(C)(C)C)CCc2c[nH]c3ccccc23)cc1` [Compound 3, (2S,4R)—N-(2-((5-((2-(1H-indol-3-yl)ethyl) (4-((E)-3-oxo-3-(2-propylhydrazineyl)prop-1-en-1-yl)benzyl)amino)pentyl)oxy)-4-(4-methylthiazol-5-yl)benzyl)-1-((S)-2-(1-fluorocyclopropane-1-carboxamido)-3,3-dimethylbutanoyl)-4-hydroxypyrrolidine-2-carboxamide], the “relative change in HDAC3 protein abundance (degradation and selectivity)” value on HDAC3 is “significant and selective reduction in HDAC3 protein levels”. By IC50 is commonly meant the concentration needed to halve the response being measured. On to `CCCNNC(=O)/C=C/c1ccc(CN(CCOCCC(=O)N[C@H](C(=O)N2C[C@H](O)C[C@H]2C(=O)N[C@@H](C)c2ccc(-c3scnc3C)cc2)C(C)(C)C)CCc2c[nH]c3ccccc23)cc1` [Compound 1, (2S,4R)-1-((S)-2-(3-(2-((2-(1H-indol-3-yl)ethyl) (4-((E)-3-oxo-3-(2-propylhydrazineyl)prop-1-en-1-yl)benzyl)amino)ethoxy)propanamido)-3,3-dimethylbutanoyl)-4-hydroxy-N—((S)-1-(4-(4-methylthiazol-5-yl)phenyl)ethyl) pyrrolidine-2-carboxamide], for which the IC50 at VHL was determined as 16.8 µM. For `CCCNNC(=O)/C=C/c1ccc(CN(CCOCCOCCC(=O)N[C@H](C(=O)N2C[C@H](O)C[C@H]2C(=O)N[C@@H](C)c2ccc(-c3scnc3C)cc2)C(C)(C)C)CCc2c[nH]c3ccccc23)cc1` [Compound 2, (2S,4R)-1-((S)-14-(tert-butyl)-1-(1H-indol-3-yl)-12-oxo-3-(4-((E)-3-oxo-3-(2-propylhydrazineyl)prop-1-en-1-yl)benzyl)-6,9-dioxa-3,13-diazapentadecan-15-oyl)-4-hydroxy-N—((S)-1-(4-(4-methylthiazol-5-yl)phenyl)ethyl) pyrrolidine-2-carboxamide], the “relative change in HDAC3 protein abundance (degradation and selectivity)” value on HDAC3 is “significant and selective reduction in HDAC3 protein levels”. The IC50 at VHL was determined as 6.78 µM.
